# Data as given in PMC9574867, “Discovery and Characterization of Synthesized and FDA-Approved Inhibitors of Clostridial and Bacillary Collagenases” (Journal of Medicinal Chemistry, 2022).
# “Also recorded” adds a separate entry of the source.
# System: MDCK II cells challenged with B. cereus AH187 supernatant
# Format: cell-based, canine
row,SMILES,TEER of MDCK II cells challenged with supernatant
1,"O=P(O)(O)c1nc2ccc(Br)cc2nc1P(=O)(O)O [Compound 10, (6-Bromoquinoxaline-2,3-diyl)bis(phosphonic acid)]",retain the TEER of the challenged cells
2,"Cc1ccc2nc(P(=O)(O)O)c(P(=O)(O)O)nc2c1 [Compound 11, (6-Methylquinoxaline-2,3-diyl)bis(phosphonic acid)]",maintained the TEER of MDCK II cells challenged with B. cereus supernatant
3,"O=P(O)(O)c1nc2cc(Cl)c(Cl)cc2nc1P(=O)(O)O [Compound 13, (6,7-Dichloroquinoxaline-2,3-diyl)bis(phosphonic acid)]",retain the TEER of the challenged cells; also recorded: maintained the TEER of MDCK II cells challenged with B. cereus supernatant
4,"O=P(O)(O)c1nc2ccc(-c3ccc(Cl)cc3)cc2nc1P(=O)(O)O [Compound 15, (6-(4-Chlorophenyl)quinoxaline-2,3-diyl)bis(phosphonic acid)]",maintained the TEER of MDCK II cells challenged with B. cereus supernatant
5,"O=P([O-])(O)C(Sc1ccc(Cl)cc1)P(=O)([O-])O.[Na+].[Na+] [Tiludronate disodium, reference compound]",maintained the TEER of MDCK II cells challenged with B. cereus supernatant
